# Experimental data: patent publication US20240197709A1, “POTENTIATING THE TUMOR-SELECTIVE EFFECTS OF NQO1-BIOACTIVATABLE AGENT BY USE OF CMET INHIBITOR” (The Trustees of Indiana University, priority 2022, published 2024)
# Legend:
# [1] = tested on: A549 shMET 3D spheroids; assay: 3D spheroid growth and viability, A549 shMET; assay type: cell-based; conditions: β-lap 3 μM
# Method: FIG. 5A. Representative brightfield images of A549 shSCR versus shMET 3D spheroids treated with vehicle control (0.1% DMSO) or β-lap (3 μM, which is sub-lethal in A549 NSCLC cells in 2D long-term survival assays) imaged at indicated times to monitor microtumor spheroid growth. Scale bar=250 μm.
# FIG. 5B. Graphical comparison of 3D spheroid (microtumor) growth of A549 shSCR vs shMET at indicated treatments over time relative to initial 3D spheroid area (day 1).
# FIG. 5C. Quantification of 3D spheroid viability at day 10 (in panel A) using CellTiter-Glo® 3D Cell Viability Assay.
# Studies have shown that drug sensitivity of cancer cells cultured in three-dimension (3D) more accurately predicts their sensitivity in vivo.30-31 Thus, we utilized 3D tumor spheroid growth of our isogenic A549 shSCR or shMET cancer cell lines to closely recapitulate the cell-cell interactions of human tumors32-33. After three days of spheroid formation, A549 shSCR and shMET microtumors were exposed to vehicle control (0.1% DMSO) or β-lap (3 μM, sub-lethal concentration in 2D culture for A549 parental line), and imaged over time for 3D spheroid tumor growth for comparison. […] Additionally, the viability of A549 shSCR versus shMET 3D spheroids treated with vehicle control and β-lap at day 10 was determined using CellTiter-Glo® 3D Viability Assay (FIG. 5C) for comparison. […]
# [2] = tested on: A549 NQO1−/− cells; assay: long-term cell survival, A549 NQO1 knock out; assay type: cell-based; conditions: β-lap alone
# Method: (§1) LC50 values were calculated from long-term cell survival graphs using GraphPad PRISM; ND denotes Not Determined even at the highest concentration presented. All error bars represent the mean±SEM. **** p<0.0001, *** p<0.001, ** p<0.01, *p<0.05.
# FIG. 1F. […] LC50 values were calculated from long-term cell survival graphs using GraphPad PRISM; ND denotes Not Determined even at the highest concentration presented. All error bars represent the mean±SEM. **** p<0.0001, *** p<0.001, ** p<0.01, *p<0.05.
# [3] = HPBCD formulation; cited from earlier work
# [4] = tested on: Capan2-mCherry microtumor; assay: 3D spheroid co-culture, tumor cells; assay type: cell-based; conditions: 3D co-culture with NIH3T3-GFP; crizotinib 2 μM, β-lap 2 μM or 4 μM
# Method: FIG. 5D. Top Inset: Representative brightfield, green (NIH3T3-GFP), red (Capan2-mCherry), and merged images of 3D spheroid co-culture of Capan2-mCherry (cancer cells) and NIH3T3-GFP (normal cells). 3D co-cultures were exposed to specified treatment conditions and imaged at indicated times to monitor drug response. Scale bar=250 μm. Untreated NIH3T3-GFP 3D spheroid culture by itself (imaged at indicated times) was added for reference.
# FIG. 5E. Bar graph of Capan2-mCherry 3D spheroid microtumor growth at specified treatment conditions over time. Asterisk (*) indicates synergistic response in the combination treatment compared to the corresponding individual treatments alone.
# Next, we investigated the tumor-selectivity and efficacy of our combination treatment strategy using 3D co-culture spheroids of Capan2 PDAC (permanently labelled with mCherry) and NIH3T3 mouse embryonic fibroblast cells (permanently labelled with GFP) to mimic physiological cell-cell and cell-environment interactions during treatment. […] These are consistent with patient data comparing associated normal tissues versus tumors in pancreas (FIGS. 1-1B, 1-1G) and lungs (FIGS. 1A, 1-1B, 1-1H). Using confocal fluorescent microscopy, we noted that NIH3T3-GFP fibroblast cells were surrounding the Capan2-mCherry PDAC cells in the 3D spheroid co-culture (FIG. 5D).
# [5] = β-lap monotherapy; cited from earlier work
# [6] = tested on: cellular hydrogen peroxide (H2O2) levels in A549 cells; assay: ROS-Glo H2O2 Assay; assay type: cell-based; conditions: A549, β-lap 3 μM, within 15 min, further increased at two hours
# Method: FIG. 2-1A. […] Growth media was then replaced with fresh media containing β-lap (3 μM) alone, criz alone (1 μM) or combination±DIC (50 μM) and collected at 15 and 120 min to measure H2O2 production using the ROS-Glo™ H2O2 Assay from Promega (Madison, WI). The assay was performed in three biological replicates.
# (§2) Next, we sought to investigate the mechanistic role of cMET in promoting resistance to ROS-induced DNA lesions caused by the futile redox cycling of β-lap with NQO1. […] In response to H2O2 stimulation, cMET can translocate into the nucleus where it interacts with PARP1 for activation to enhance the repair of ROS-induced DNA damage. […] Next we performed PARP1 immunoprecipitation studies to determine whether it associates with activated cMET in the nucleus following treatment with β-lap at increasing doses.
# [7] = tested on: A549 shMET cells; assay: long-term survival, A549 shSCR vs shMET; assay type: cell-based; conditions: β-lap 2 h
# Method: as §1
# [8] = tested on: pY1234-cMET/PARP1 nuclear interaction, A549; conditions: A549, β-lap 3 μM, 2 h
# [9] = tested on: A549 NSCLC with transient MET knockdown (siMET); assay: long-term survival, A549 transient MET knockdown; conditions: A549, two different siRNAs
# Method: Graph showing relative long-term survival studies in A549 NSCLC with transient MET knockdown (siMET) compared to siSCR control. β-lap was added±DIC (50 μM) for 2 h after RNAi transfection (48 h) with two different siRNA sequences.
# Next, we investigated whether loss of cMET activity arising from genetic depletion of MET expression could enhance the therapeutic effect of β-lap at lower concentrations.
# [10] = tested on: pY1234-cMET / PARP1; assay: PARP1 immunoprecipitation (co-IP); assay type: cell-based; conditions: A549, β-lap 3 and 6 μM for 2 h
# Text: as §2
# [11] = tested on: Capan2 shMET; assay: long-term survival (DNA assay), Capan2 shSCR versus shMET; assay type: cell-based
# Text: FIG. 1-1R. Graph showing relative long-term survival in isogenic Capan2 shSCR versus shMET cell lines using the DNA assay.
# Dicoumarol (DIC) is a well-established NQO1 inhibitor (Asher, et al., Biochemistry 2006, 45(20), 6372-8; Motea, et al., Clin Cancer Res 2019, 25(8), 2601-2609; Huang, et al., Cancer Cell 2016, 30(6), 940-952).
structure (smiles),measurement,setting,value
"CC1(C)CCC2=C(O1)c1ccccc1C(=O)C2=O [β-lap, β-Lapachone]",3D spheroid (microtumor) growth over time,[1],potentiated the lethal effect
same,3D spheroid viability at day 10 (CellTiter-Glo 3D),[1],more hypersensitive
same,sensitivity after knocking out NQO1,[2],more resistant
same,maximum-tolerated dose (MTD),[3],about 25 mg/kg
same,Capan2-mCherry microtumor growth,[4],very little effect on tumor growth
same,toxicity at high doses in clinical trials,[5],methemoglobinemia and haemolysis
same,relative amount of cellular H2O2,[6],significantly increased
same,sensitivity to β-lap compared to shSCR control,[7],hypersensitivity
same,in situ interaction between activated cMET and PARP1 (PLA foci),[8],enhanced in situ interaction
same,sensitivity to β-lap compared to siSCR control,[9],sensitization
same,pY1234-cMET co-immunoprecipitated with PARP1,[10],increasing levels of pY1234-cMET with PARP1
same,sensitivity to β-lap after stable knockdown of cMET,[11],enhanced Capan2 sensitivity
